SMILES strings stand for the structures.

This note sets out measurements from patent publication US20040220268A1, “Compound that directly stimulates phospholipase C activity” (priority 2003, published 2004).

The subject of assay [1] is human neutrophils. As to the kind of experiment: [Ca2+]i measurement with fura-2 in neutrophils. In kind it is cell-based. The protocol:
Fura-2-loaded neutrophils were stimulated with m-3M3FBS or o-3M3FBS at 25 μM in extracellular calcium containing 2 mM or extracellular free calcium conditions. The results shown are representative of three independent experiments (A). Prepared neutrophils were loaded with fura-2 and then stimulated with 25 μM of m-3M3FBS in the absence or in the presence of 4 μM of U-73122 or U-73343 (B). Changes in 340 nm/380 nm excitation ratio were monitored, and converted to [Ca^2+]i levels. Data are presented as means ±S. E. M. of three independent experiments.
(§1) Freshly prepared human neutrophils were incubated in serum free RPMI 1640 medium with 3 μM of fura-2/AM at 37° C. for 30 min with continuous stirring. After washing with serum free RPMI 1640 medium, the cells were suspended in serum free RPMI containing 250 μM of sulfinpyrazone to prevent dye leakage. About 2×10^6 cells were suspended in Ca^2+ free Locke's solution (158.4 mM NaCl, 5.6 mM KCl, 1.2 mM MgCl2, 5 mM HEPES pH 7.3, 10 mM glucose, and 0.2 mM EGTA) for each measurement. Changes in the fluorescence ratio were measured at an emission wavelength of 500 nm for dual excitation wavelengths at 340 nm and 380 nm. The calibration of the fluorescence ratio versus [Ca^2+]i was performed as described by Grynkiewicz (Grynkiewicz et al., 1985).

For assay [2], the system named is human neutrophils. Briefly: Superoxide anion generation (lucigenin chemiluminescence). In kind it is cell-based. To be noted: up to 50 μM. The protocol: Superoxide anion generation was measured by monitoring chemiluminescence in the presence of the chemiluminogenic probe lucigenin. Prepared neutrophils were stimulated with m-3M3FBS or o-3M3FBS at 2.5, 5, 10, 15, 20, 25, and 50 μM and lucigenin (40 μM) was then added. Luminescence changes were measured using a Luminoskan. Data are presented as means ±S. E. M. of four independent experiments (A). Structures of m-3M3FBS (2,4,6-Trimethyl-N-(meta 3-trifluoromethyl-phenyl)-benzenesulfonamide) and o-3M3FBS (2,4,6-Trimethyl-N-(ortho 3-trifluoromethyl-phenyl)-benzenesulfonamide) (B).
Superoxide anion production was measured by monitoring chemiluminescence in the presence of the chemiluminogenic probe lucigenin (Bureau et al., 2001). Prepared neutrophils were plated in 96 wells and stimulated with chemicals at concentrations of 2.5, 5, 10, 15, 20, 25 and 50 μM, and then the lucigenin (40 μM) was added. Luminescence, measured with a Luminoskan (Labsystems, Inc., Helsinki, Finland), was integrated over 10 s intervals for a total of 3 min at room temperature.

Assay [3] deals with human neutrophils. As to the kind of experiment: Cross-desensitization of [Ca2+]i responses in neutrophils. To be noted: extracellular calcium free. In kind it is cell-based. The protocol: FIG. 5 describes cross-desensitization experiments. Fura-2-loaded neutrophils were pretreated with m-3M3FBS (25 μM) and then rechallenged with ATP (500 μM) or WKYMVm (1 μM) in this or in the reverse order in the extracellular calcium free condition. Changes in the 340 nm/380 nm excitation ratio were monitored, and converted to [Ca^2+]i levels. The results shown are representative of three independent experiments.
as §1

The subject of assay [4] is U937 cells. As to the kind of experiment: [Ca2+]i measurement with fura-2. In kind it is cell-based, human. Conditions: 25 μM. The protocol:
(§2) Neutrophils and HL60, and differentiated HL60, U937, NIH3T3, and PC12 cells were loaded with fura-2 and then stimulated with 25 μM of m-3M3FBS. Changes in the 340 nm/380 nm excitation ratio were monitored, and converted to [Ca^2+]i levels. Data are presented as means ±S. E. M. of three independent experiments.
(§3) U937 (human histiocytic lymphoma cells), HL60 (human promyelocytic leukemia cells), NIH3T3 (NIH Swiss mouse embryo fibroblasts), and PC12 (rat adrenal pheochromocytoma cells) were obtained from the American Type Culture Collection (Rockville, Md.) and HeLa (human adenocarcinoma cells) Tet-off cells were purchased from Clontech (Palo Alto, Calif., U.S.A.) and maintained as recommended. The cells were maintained at about 1×10^6 cells/ml under standard incubator conditions (humidified atmosphere, 95% air, 5% CO2, 37° C.). HL60 cells were induced to differentiate into the granulocyte phenotype by adding dimethylsulfoxide (DMSO) (final concentration 1.25% v/v) for 5 days, as has been described before (Ithoh et al., 1998).
as §1

The test system of assay [5] is HL60 cells. Briefly: [Ca2+]i measurement with fura-2. In kind it is cell-based, human. To be noted: 25 μM. The protocol: as §2, §3, §1
For assay [6], the system named is differentiated HL60 cells. Briefly: [Ca2+]i measurement with fura-2. In kind it is cell-based, human. To be noted: 25 μM. The protocol:
as §2, §3, §1

Assay [7] relates to phospholipase D. As to the kind of experiment: In vitro activity of phospholipase D. In kind it is biochemical. Conditions: data not shown.
In assay [8] the test system is Gs-proteins. Briefly: Cyclic AMP generation (radio receptor assay). In kind it is cell-based. To be noted: human neutrophils; m-3M3FBS 25 μM, histamine 100 μM. The protocol:
(§4) Isolated neutrophils were preincubated with PTX (1 μg/ml) or vehicle for 90 min at 37° C. and stimulated with m-3M3FBS, FMLF, or ATP at concentrations of 25, 1, and 500 μM, respectively. Changes in the excitation ratios at 340 nm/380 nm were monitored. Data are presented as means ±S. E. M. of two independent experiments (A). cAMP levels were determined by a radio receptor assay. Prepared cells were treated with m-3M3FBS (25 μM) or histamine (100 μM) and then lysed with Tris-EDTA. After removing the supernatant, [ 3H] cAMP and protein were added, and the amount of [^3H] cAMP-protein complex was determined. The amount of unlabeled cAMP (in the sample) was then calculated by measuring the protein-bound radioactivity. Data are presented as means ±S. E. M. of two independent experiments (B). […] RGS2-GFP inducible HeLa cells were cultured for 48 h in the absence or in the presence of tetracycline and loaded with fura-2. Cells were treated with histamine (100 μM) or m-3M3FBS (25 μM), and changes in the 340 nm/380 nm ratios were monitored and converted to [Ca^2+]i values. The results shown are representative of three independent experiments (C).

For assay [9], the system named is Gq-proteins. As to the kind of experiment: [Ca2+]i in RGS2-GFP inducible HeLa cells. In kind it is cell-based, human. Conditions: histamine 100 μM, m-3M3FBS 25 μM. Here is the method: as §4
pRevTRE vector containing the cDNA of rat RGS2-GFP was transfected into Hela Tet-off cells using Lipofectamine. Selection was performed in DMEM supplemented with 2 μg/ml of tetracycline and 500 μg/ml of hygromycin B. Two weeks later, several well-isolated colonies were picked out and analyzed by western blotting to determine the expression level of RGS2 in the absence of tetracycline. For these experiments, HeLa cells were cultured for 48 h in the absence or in the presence of tetracycline.
as §1

[10] abbreviates: 25 μM, extracellular Ca2+ at physiologic levels (2 mM).

With `Cc1cc(C)c(S(=O)(=O)Nc2ccccc2C(F)(F)F)c(C)c1` [o-3M3FBS, 2,4,6-Trimethyl-N-(ortho 3-trifluoromethyl-phenyl)-benzenesulfonamide, reference compound], the “[Ca2+]i increase” value in assay [1] (setting [10]) is on record as “failed to elicit this response”. Besides, the “effect on superoxide generation” value in [2] is “did not affect”.

Consider `Cc1cc(C)c(S(=O)(=O)Nc2cccc(C(F)(F)F)c2)c(C)c1` [m-3M3FBS, 2,4,6-Trimethyl-N-(meta 3-trifluoromethyl-phenyl)-benzenesulfonamide], for which, in [3] (25 μM after ATP 500 μM or WKYMVm 1 μM), the “[Ca2+]i response when given after ATP or WKYMVm” value was “elicited still further [Ca^2+]i increases”. For the same compound, the “effect of prestimulation on cellular response to ATP” value in assay [3] (m-3M3FBS 25 μM, then ATP 500 μM) is listed as “significantly reduced”. Also, the “effect of prestimulation on cellular response to WKYMVm” value in assay [3] (m-3M3FBS 25 μM, then WKYMVm 1 μM) is listed as “significantly reduced”. Further, the calcium increase entry in [4] was “induced calcium increase”; in assay [5] it was “induced calcium increase”; in assay [6], “induced calcium increase”; in assay [1] (human neutrophils, 25 μM), “induced calcium increase”. In addition, the “[Ca2+]i increase” value was “caused a [Ca^2+]i increase” in assay [1] (setting [10]); “evoked a [Ca^2+]i increase” in [1] (25 μM, extracellular calcium-depleted condition); “caused [Ca^2+]i increases” in [9] (HeLa cells in the presence of tetracycline (RGS2 not induced)). For the same compound, the “concentration of saturated maximal activity of [Ca2+]i release” value in assay [1] (concentration dependent, data not shown) stood at 50 µM. Also, the “activity of phospholipase D” value in assay [7] was “did not affect”. Also, in assay [8], the “intracellular cAMP level” value was “didn't change the cAMP level”. In addition, the “effect of RGS2 induction on the induced calcium response” value in [9] (HeLa cells overexpressing RGS2) is given as “unaffected”.
